Assay results from patent US20090048339A1, “COMPOSITIONS OF CIS-9, TRANS-11 CONJUGATED LINOLEIC ACID AND VACCENIC ACID AND USES THEREOF” (FONTERRA CORPORATE RESEARCH AND DEVELOPMENT LIMITE, priority 2005, published 2009).

Legend:
OVA-induced asthma = OVA-induced asthma mouse model: lung histopathology score and mucus index (alcian blue-PAS sections); assay type: in vivo, C57BL/6 mice; settings: summary statement; for effect on lung pathology: fed individually
Procedure: (§1) Eight to nine week old male and female C57BL/6 mice (University of Auckland, New Zealand) were kept on an ovalbumin (OVA)-free normal mouse chow diet from weaning up until they were assigned to a particular diet (control or experimental diet). Each diet group (n=6) contained an equal number of male and female mice. Throughout the study period mice were kept in an air-conditioned room with controlled humidity, temperature, and a 12h light:dark cycle.
(§2) Healthy control mice were maintained on an unmodified AIN-93G diet. Soybean oil (which contains no CLA) was the dietary fat source in the AIN-93G diet. The final fat content of all treatment diets used in the Examples was maintained at the same level as the fat content of the control AIN-93G diet by reducing the soybean oil content of the treatment or control diets as required. Fresh diet was provided biweekly, and mice had free access to food and water throughout the study.

[1] = system: allergen-induced accumulation of leukocytes into the lung; experiment: OVA-induced asthma mouse model: bronchoalveolar lavage (BAL) total and differential cell counts; assay type: in vivo, C57BL/6 mice; settings: for increase of total BAL cell counts vs control diet: single-supplement diets (0.14% cis-9, trans-11 CLA or 0.21% VA), BAL 6 days after intranasal OVA challenge, vs AIN93G control; for increase of accumulation of eosinophils in BAL vs control diet: single-supplement diets, BAL 6 days after OVA challenge, not significant; for effect on leukocyte infiltration into the airway lumen: summary statement
Procedure: as §1, §2
Bronchoalveolar lavage was performed immediately after euthanasia by flushing 1 ml of PBS containing 1% heat inactivated fetal calf serum (lavage buffer) thrice through the lung and airways of mice via the cannulated trachea. The recovered BAL was pooled for each animal, centrifuged at 1,500 rpm at 4° C., and the supernatant stored at −80° C. The cell pellets were resuspended in 1 ml of lavage buffer, and total cell numbers were counted using a hemocytometer. BAL cells were centrifuged onto poly-L-lysine-coated glass slides using a cytospin, and stained with Diff-Quik stain (Dade Behring Inc. USA). Differential cellular counts were made by counting ≧300 cells under light microscopy (Nikon E200 microscope), using standard morphological criteria.
Data are expressed as the mean±SEM, and statistical significance was determined by the Student's t test. A value of P<0.05 was taken as significant.

[2] = mice, two week feeding period; cited from earlier work
IL-5 = IL-5 in BAL fluid by ELISA after allergen challenge; assay type: in vivo, C57BL/6 mice; settings: vs AIN-93G control
Excerpt: The levels of IL-5 and eotaxin in the BAL fluid were quantitated by ELISA using a Quantikine mouse IL-5 ELISA kit and a mouse eotaxin Quantikine ELISA kit (R&D Systems, MN), respectively, according to the manufacturers' instructions. The detection limits were 3 pg/ml for eotaxin and 7 pg/ml for IL-5.
IL-5 and eotaxin produced by a variety of different cell types in the sensitized lung play key roles in asthma by controlling the development and release of eosinophils from the bone marrow, and their accumulation, activation and survival in the lung (Walsh et al., 2005; Shinagawa et al., 2003). Challenge with allergen led to marked increases in the levels of IL-5 and eotaxin (data not shown) in the BAL fluid of control mice fed the AIN93G diet (FIG. 3).

[3] = Blood triglyceride levels (Accutrend GCT meter); settings: diet with 0.21% VA; P<0.05; data not shown
[4] = humans; cited from earlier work

increase of blood triglyceride levels [3] [%]	Structure (SMILES)	effect on lung pathology (OVA-induced asthma)	increase of total BAL cell counts vs control diet [1] [%]	increase of accumulation of eosinophils in BAL vs control diet [1] [%]	effect on leukocyte infiltration into the airway lumen [1]	VA consumed retained as cis-9, trans-11 CLA in its triglyceride form [2] [%]	reduction of IL-5 in BAL fluid vs control diet (IL-5) [%]	average conversion rate of VA to cis-9, trans-11 CLA [4] [%]	inhibition of mucus hypersecretion (significance) (OVA-induced asthma)	increase in monocytes/macrophages in BAL vs control diet ([1]; 0.14% cis-9, trans-11 CLA diet, P=0.05) [%]
59	CCCCCC/C=C/CCCCCCCCCC(=O)O [VA, trans 11-octadecenoic acid]	no significant effect	94	270	increased	~12	11	~19	–	–
–	CCCCCC/C=C/C=C\CCCCCCCC(=O)O [cis-9, trans-11 CLA, cis-9, trans-11 conjugated linoleic acid]	no significant effect	43	69	increased	–	21	–	significance was not achieved	35
